The test deals with peripheral blood monocytes. Briefly: Ex vivo uptake of fluorescent Aβ42 by peripheral blood monocytes from adjuvanted mice. It is filed as in vivo, C57BL/6 mice. To be noted: 24 hrs after i.m. injection, FIG. 21; QS21 5 μg. From the text: To begin to examine the function of the increase of monocytes in the peripheral blood, we examined the capacity of those monocytes to uptake Aβ42 in a test tube. In order to measure that phagocytic activity, we have used fluorescent HiLyteFluo Aβ42 (Anaspec Inc).
We examined the capacity of monocytes to uptake Aβ42 in a test tube. In order to measure that phagocytic activity we have used fluorescent HiLyteFluo Aβ42 (Anaspec Inc).
Preparation of cells: Peripheral blood was drawn from C57BL/6 mice via cardiac puncture with lithium-heparin as anticoagulant, 24-Hour after injection of the adjuvants used herein. Red blood cell lysis was performed twice on pooled blood with Ammonium Chloride-based Buffer (Sigma, Steinheim, Germany) and cells were counted with the EasyCount™ System (Immunicon). […]
Samples were acquired on a flow cytometer (BD FACSCanto II) and data analyzed with the FACSDiva software (BD Biosciences).
Monocytes were identified by their Side/Forward scatter properties, excluding debris and gated as CD3-/CD45R/B220-/Ly-6G-/NK1.1-(Lineage-)/CD11b+ cells. Aβ uptake was assessed by reporting the percentage and Mean Fluorescence Intensity (GeoMean) of positive HiLyte fluor488 Aβ1-42 cells among gated monocytes.

As to QS21 [reference compound], the “ex vivo Aβ uptake by mouse peripheral blood monocytes” value was “does not promote”.

The values are drawn from patent US20130216614A1, “IMMUNOGENIC COMPOSITIONS AND METHODS FOR TREATING NUEROLOGIC DISORDERS” (Glaxosmithkline Biologicals S.A., priority 2010, published 2013).
